According to the NIST ThermoML archive (doi:10.1021/je3007666):

Assay: relative permittivity at zero frequency (dimensionless); xn = mol fraction of the nth substance listed
Settings: 100 kPa, Liquid, Dielectrometer

CC(C)(C)O [2-methylpropan-2-ol] + CCCCO
relative permittivity at zero frequency
Settings | 288.15 K | 293.15 K | 298.15 K | 303.15 K | 308.15 K
x1 = 0.0501 | 18.96 | 18.21 | 17.49 | 16.81 | 16.12
x1 = 0.1012 | 18.93 | 18.16 | 17.42 | 16.68 | 15.97
x1 = 0.1503 | 18.85 | 18.04 | 17.29 | 16.53 | 15.81
x1 = 0.2003 | 18.75 | 17.92 | 17.15 | 16.37 | 15.62
x1 = 0.2497 | 18.61 | 17.79 | 16.99 | 16.19 | 15.44
x1 = 0.299 | 18.48 | 17.63 | 16.85 | 16.01 | 15.25
x1 = 0.349 | 18.36 | 17.5 | 16.69 | 15.83 | 15.07
x1 = 0.3993 | 18.25 | 17.35 | 16.53 | 15.65 | 14.87
x1 = 0.4505 | 18.13 | 17.22 | 16.38 | 15.45 | 14.63
x1 = 0.5001 | 18.01 | 17.06 | 16.19 | 15.25 | 14.42
x1 = 0.5511 | 17.89 | 16.91 | 16.01 | 15.02 | 14.15
x1 = 0.5998 | 17.74 | 16.73 | 15.82 | 14.79 | 13.89
x1 = 0.649 | 17.6 | 16.54 | 15.58 | 14.51 | 13.59
x1 = 0.7001 | 17.39 | 16.31 | 15.32 | 14.21 | 13.25
x1 = 0.7503 | 17.15 | 16.03 | 15 | 13.88 | 12.89
x1 = 0.8003 | 16.84 | 15.7 | 14.63 | 13.48 | 12.49
x1 = 0.8497 | 16.45 | 15.26 | 14.21 | 13.03 | 12.04
x1 = 0.899 | 15.96 | 14.77 | 13.71 | 12.53 | 11.55
x1 = 0.95 | 15.29 | 14.15 | 13.15 | 11.97 | 11
x1 = 1 | 14.49 | 13.38 | 12.49 | 11.34 | 10.4

CC(C)(C)O [2-methylpropan-2-ol] + CCC(C)O
relative permittivity at zero frequency
Settings | 288.15 K | 293.15 K | 298.15 K | 303.15 K | 308.15 K
x1 = 0.0511 | 18.35 | 17.39 | 16.47 | 15.62 | 14.8
x1 = 0.1003 | 18.24 | 17.25 | 16.35 | 15.46 | 14.64
x1 = 0.1512 | 18.11 | 17.13 | 16.22 | 15.31 | 14.47
x1 = 0.199 | 17.97 | 16.98 | 16.06 | 15.15 | 14.28
x1 = 0.2498 | 17.85 | 16.83 | 15.92 | 14.98 | 14.1
x1 = 0.3007 | 17.71 | 16.67 | 15.77 | 14.79 | 13.92
x1 = 0.35 | 17.55 | 16.54 | 15.6 | 14.62 | 13.75
x1 = 0.3997 | 17.42 | 16.36 | 15.44 | 14.44 | 13.54
x1 = 0.4502 | 17.25 | 16.19 | 15.27 | 14.25 | 13.34
x1 = 0.5011 | 17.09 | 16 | 15.09 | 14.05 | 13.14
x1 = 0.5497 | 16.89 | 15.83 | 14.9 | 13.84 | 12.92
x1 = 0.6007 | 16.7 | 15.64 | 14.72 | 13.62 | 12.7
x1 = 0.6511 | 16.5 | 15.42 | 14.5 | 13.41 | 12.47
x1 = 0.701 | 16.28 | 15.17 | 14.26 | 13.17 | 12.23
x1 = 0.7497 | 16.03 | 14.93 | 14.03 | 12.89 | 11.96
x1 = 0.8005 | 15.76 | 14.68 | 13.78 | 12.63 | 11.68
x1 = 0.8488 | 15.49 | 14.39 | 13.5 | 12.32 | 11.39
x1 = 0.9003 | 15.19 | 14.07 | 13.18 | 12.01 | 11.07
x1 = 0.9496 | 14.84 | 13.72 | 12.84 | 11.68 | 10.74
x1 = 1 | 14.49 | 13.38 | 12.49 | 11.34 | 10.4
